Laboratory results taken from paper PMC9218685, “Legume Plant Peptides as Sources of Novel Antimicrobial Molecules Against Human Pathogens” (Frontiers in Molecular Biosciences, 2022).
In brackets after ≈: the same amount, converted by molar mass. Entries after “also recorded” stand apart in the source; their conditions may differ. Where two headings read alike, the source gives them in different places. Ends that are not written are not given here. Peptide text beside a SMILES is read from it.

Experiments:
C. albicans = assay: Scanning electron microscopy of cell morphology; type: cell-based, Candida albicans; details: 30 min treatment, peptide 1.6, 3.125 or 25 µM as in Figure 4 legend
Protocol: (§1) A. baumannii and C. albicans were grown and treated the same way as for the membrane permeability assay. Cells were then fixed with 2.5% (v/v) glutaraldehyde in phosphate buffered saline (PBS, pH 7.4). 5 μl of the above bacterial and yeast suspensions were spotted on a silicon disk coated with 0.01% Poly-L-Lysine. The filters were washed twice with PBS and gradually dehydrated with ethanol series (30, 50, 70, 80%, and three times 100% ethanol, each for minimum 30 min). The samples were dried with a critical point dryer (K850: Quorum Technologies Ltd.), followed by 12 nm gold coating and observed under a JEOL JSM-7100F/LV scanning electron microscope.

[1] = tested on: E. coli, S. enteritidis, P. aeruginosa, L. monocytogenes, S. aureus, E. faecalis, K. pneumoniae and A. baumannii; assay: Antimicrobial activity assay, spectrum over the eight tested pathogenic bacteria; type: cell-based; details: 3 h treatment of ~10^7 log phase bacteria, peptides 25 to 0.8 µM; active = MBC ≤25 µM
Summary of the method: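 Log-phase bacteria (~10^7) treated 3 h with NCR peptides in potassium-phosphate buffer pH 7.4, two-fold dilutions from 25 µM to 0.8 µM. MBC is the lowest concentration completely eliminating viable bacteria. Strains: E. faecalis ATCC 29212, S. aureus HNCMO112011, L. monocytogenes ATCC 19111, P. aeruginosa ATCC 27853, E. coli ATCC 8739, S. enterica ATCC 13076, K. pneumoniae NCTC 13440, A. baumannii ATCC 17978.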

A. baumannii = assay: Scanning electron microscopy of cell morphology; type: cell-based, Acinetobacter baumannii; details: 30 min treatment, peptide 1.6 or 3.125 µM as in Figure 3 legend
Protocol: as §1
FIGURE 3 Viability, membrane permeability and morphology of A. baumannii cells after NCR treatment (A–L) SYTO9/PI staining observed with confocal microscope, (M–X) Cell morphology observed with SEM. (A,M) untreated control, (B,N) CaNCR13, 3.125 µM, (C,O) CaNCR63, 3.125 µM, (D,P) CaNCR63_1-20, 3.125 µM, (E,Q) CaNCR63_15-34, 3.125 µM, (F,R) MsNCR443, 3.125 µM, (G,S) MsNCR463_16-35, 1.6 µM, (H,T) MsNCR463_17-30, 3.125 µM, (I,U) PsNCR349, 1.6 µM, (J,V) PsNCR349_26-50, 3.125 µM, (K,W) PsNCR349_31-50, 3.125 µM, (L,X) PsNCR352, 1.6 µM.

[2] = tested on: Lambda DNA/HindIII marker; assay: Gel retardation assay (DNA aggregation); type: binding; details: 100 ng DNA, 5 or 10 µM peptide in water, 30 min at room temperature, 1% agarose gel
Protocol: Interactions of peptides with DNA was visualized with gel retardation assay ([Hsu et al., 2005]). 100 ng Lambda DNA/HindIII marker (ThermoFisher Scientific) was incubated with 0, 5 or 10 µM synthetic NCRs or NCR derivatives in water for 30 min at room temperature and then loaded into 1% agarose gel. Electrophoresis of DNA fragments separated the mobile HindIII-digested DNA fragments while the aggregated DNA remained in the loading wells.
FIGURE 6 Aggregation of DNA by NCR peptides. Lambda HindIII digested DNA was incubated without (0) or with NCR peptides at 5 or 10 μM concentration.

[3] = tested on: Candida albicans W01 strain; assay: microbe, parasite or virus in culture; type: cell-based; details: read-out: MFC, minimal fungicidal concentration against C. albicans
Text: The following pathogenic bacterial strains were used: The Gram-positive Enterococcus faecalis (ATCC 29212), Staphylococcus aureus (HNCMO112011), Listeria monocytogenes (ATCC 19111) and the Gram-negative Pseudomonas aeruginosa (ATCC 27853), Escherichia coli (ATCC 8739), Salmonella enterica (ATCC 13076), Klebsiella pneumoniae (NCTC 13440), Acinetobacter baumannii (ATCC 17978) obtained from the ATCC (United States) and NCTC (National Collection of Type Cultures–England). For the antifungal experiment the Candida albicans W01 strain ([Ördögh et al., 2014]) was used. Antimicrobial activities of peptides against ∼10^7 log phase bacteria were tested in Potassium-Phosphate Buffer (PPB, pH 7.4) as described by [Jenei et al. (2020)] while anti-Candida assays were done according to [Szerencsés et al. (2021)]. The two-fold dilution series of peptides ranged from 25 μM to 0.125 μM, while that of the antibiotics ampicillin (Merck) and miconazole (Duchefa Biochemie) from […] to 0.1 μM. The lowest concentration of the antimicrobial agents, which completely eliminated viable bacteria or C. albicans were considered as the minimal bactericidal concentration (MBC) and minimal fungicidal concentration (MFC).

[4] = tested on: Acinetobacter baumannii (ATCC 17978); assay: microbe, parasite or virus in culture; type: cell-based; details: read-out: MBC, minimal bactericidal concentration against A. baumannii
Summary of the method: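 MBC, defined as the lowest concentration giving complete killing, was read after a 3 h exposure. Peptides were two-fold serially diluted starting at 25 µM and applied to roughly 10^7 log-phase bacteria in pH 7.4 potassium-phosphate buffer.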

[5] = C. albicans W01, two-fold dilution series, lowest concentration completely eliminating viable C. albicans
[6] = ~10^7 log phase bacteria, Potassium-Phosphate Buffer pH 7.4, 3 h treatment, two-fold dilution series, lowest concentration completely eliminating viable bacteria

| Molecule | Morphology of C. albicans cells by SEM (C. albicans) | Antibacterial spectrum over the eight tested bacterial strains [1] | Morphology of A. baumannii cells by SEM (A. baumannii) | Aggregation of HindIII-digested λ DNA (DNA retained in loading wells) [2] | MFC [3, 5] [µM] | MBC ([4]; ATCC 17978, 3 h, pH 7.4) [µM] | MFC ([3]; W01 strain) [µM] | MBC [4, 6] [µM] |
| --- | --- | --- | --- | --- | --- | --- | --- | --- |
| YNLKYCTNDKDCPTMMCFPPDVSKCVWKTCYCVQKHKKKLKKKKKLTFNM-OH (cysteines drawn unpaired) [PsNCR349] | Flattening of cells | broad-spectrum activity | Only dead cells were visible | DNA remained in the wells | 3.125 |  |  |  |
| CC[C@H](C)[C@H](NC(=O)[C@H](CCCCN)NC(=O)[C@H](CO)NC(=O)[C@H](CCCNC(=N)N)NC(=O)[C@@H]1CCCN1C(=O)[C@H](CS)NC(=O)[C@H](CCCNC(=N)N)NC(=O)[C@H](Cc1ccc(O)cc1)NC(=O)[C@H](CCCCN)NC(=O)[C@H](CCCCN)NC(=O)[C@H](CS)NC(=O)[C@H](CC(=O)O)NC(=O)[C@@H](NC(=O)[C@H](CCCNC(=N)N)NC(=O)[C@@H](NC(=O)[C@H](CCCCN)NC(=O)[C@H](CS)NC(=O)[C@@H](NC(=O)[C@H](CCSC)NC(=O)[C@@H](N)CCCCN)[C@@H](C)CC)[C@@H](C)O)C(C)C)C(N)=O [CaNCR63_1-20] (H-KMICKTRVDCKKYRCPRSKI-NH2; N-terminus assumed) | most similar to the control |  | rough cell surface, lysis and flattening of the cells | less efficient than either the full-length peptide or the C-terminal CaNCR63_15-34 |  | 6.25 (≈ 15.4 µg/mL) | 25 (≈ 61.4 µg/mL) |  |
| CC(C)[C@H](NC(=O)CNC(=O)[C@H](CCCNC(=N)N)NC(=O)[C@H](CCCCN)NC(=O)[C@@H]1CCCN1C(=O)[C@H](CCCCN)NC(=O)[C@@H](N)CS)C(=O)N[C@@H](CC(N)=O)C(=O)N[C@@H](Cc1ccccc1)C(=O)N[C@@H](CCCNC(=N)N)C(=O)N[C@@H](CS)C(=O)N[C@@H](CCCNC(=N)N)C(=O)N[C@@H](CCCCN)C(=O)NCC(=O)N[C@@H](CCCCN)C(=O)N[C@@H](CS)C(=O)N[C@@H](Cc1ccccc1)C(=O)N1CCC[C@H]1C(=O)N[C@H](C(=O)N[C@@H](CCCNC(=N)N)C(N)=O)C(C)C [MsNCR463_16-35] (H-CKPKRGVNFRCRKGKCFPVR-NH2; N-terminus assumed) | Flattening of cells |  | budding of vesicles; also recorded: Filament-like structures | DNA remained in the wells | 3.1 (≈ 7.37 µg/mL) |  | 3.125 (≈ 7.43 µg/mL) | 1.6 (≈ 3.81 µg/mL) |
| CC[C@H](C)[C@H](NC(=O)[C@H](CCCCN)NC(=O)[C@H](CO)NC(=O)[C@H](CCCNC(=N)N)NC(=O)[C@@H]1CCCN1C(=O)[C@H](CS)NC(=O)[C@H](CCCNC(=N)N)NC(=O)[C@H](Cc1ccc(O)cc1)NC(=O)[C@H](CCCCN)NC(=O)[C@H](CCCCN)NC(=O)[C@H](CS)NC(=O)[C@H](CC(=O)O)NC(=O)[C@@H](NC(=O)[C@H](CCCNC(=N)N)NC(=O)[C@@H](NC(=O)[C@H](CCCCN)NC(=O)[C@H](CS)NC(=O)[C@@H](NC(=O)[C@H](CCSC)NC(=O)[C@@H](N)CCCCN)[C@@H](C)CC)[C@@H](C)O)C(C)C)C(=O)N[C@@H](CCCCN)C(=O)N[C@@H](CC(=O)O)C(=O)N[C@@H](CS)C(=O)N[C@H](C(=O)N[C@@H](CCCCN)C(=O)NCC(=O)N[C@@H](Cc1ccc(O)cc1)C(=O)N[C@@H](CS)C(=O)N[C@@H](CCCNC(=N)N)C(=O)N[C@@H](CS)C(=O)N[C@H](C(=O)N[C@@H](CCCNC(=N)N)C(=O)N[C@@H](CCCCN)C(=O)N[C@@H](CCCCN)C(=O)O)C(C)C)C(C)C [CaNCR63] (H-KMICKTRVDCKKYRCPRSKIKDCVKGYCRCVRKK-OH; N-terminus assumed) | Flattening of cells; also recorded: aggregation of shrunken cells in a spider net like matrix | broad-spectrum activity | rough cell surface, lysis and flattening of the cells | DNA remained in the wells |  |  |  | 6.25 (≈ 25.8 µg/mL) |
